How the values were obtained:
[1] = tested on: Pyricularia oryzae; experiment: whole plant or invertebrate; format: in vivo; conditions: 100 is total disease control, 0 is no disease control; for Rice Blast (RB) protectant fungicide data, percent control: 300 g/ha, greenhouse; for pest or weed control at 300 g/ha: Pyricularia oryzae, topical, 144 h, read-out: Rice Blast (RB) protectant fungicide data, percent control, protectant, 300 g/ha, greenhouse
[2] = tested on: Sphaerotheca fuliginea; experiment: Cucumber Powdery Mildew (CPM) protectant test in the greenhouse; format: in vivo; conditions: 100 is total disease control, 0 is no disease control; for Cucumber Powdery Mildew (CPM) protectant fungicide data, percent control: 300 g/ha; for pest or weed control at 300 g/ha: Podosphaera fuliginea, topical, 168 h, read-out: Cucumber Powdery Mildew (CPM) protectant fungicide data, percent control
Protocol: Plants used in the fungicide testing program were grown in 2-¼-inch (5.7-cm). square pots containing RediEarth propagation substrate. The plants were raised under greenhouse conditions. The rice plants were 12-days-old and cucumbers were 13-days-old at the time of spraying with chemical treatments.
The sample of the experimental chemical was weighed and dissolved in an acetone-methanol-water solution (A/M/W at 1:1:2 ratio by volume).
After sprayer calibration, the test solutions were poured into the fungicide sprayer. The fungicide sprayer contains three spray nozzles, located approximately 10 cm above and to the sides of the plants. The spray produced by the nozzles results in uniform coverage of both the upper and lower parts of the plant leaves. After spraying, the treated plants were placed in a drying chamber for 4 hours, prior to sorting.
Cucumber Powdery Mildew (CPM), caused by the fungus Sphaerotheca fuliginea, was maintained on large cucumber plants. For inoculum preparation, five to eight leaves depending on size, completely covered with powdery mildew spores, were collected. The leaves were placed in a glass jar and covered with 500 ml of water, containing 5 drops of Tween-80. The material was filtered through two layers of cheesecloth to remove leaf fragments. The spore count was adjusted to 2×10^5 spores per ml.
Cucumber plants, cv. “Bush Champion,” were used for this test. The plants were thinned to one per pot after the cotyledons were fully developed. Two days before the test, the small leaves and meristem region were removed, leaving only the cotyledons and one large true leaf.
The protectant tests required that the cucumber plants be inoculated 1 day after spraying with the chemical treatment. The plants were inoculated with a hand-held spray bottle with the suspension of fungal spores. The leaves were lightly misted on the upper surface from two different spray directions. Disease development occurred in the greenhouse.
After seven days, the plants were evaluated for percent of disease control. The results are reported as percent control; 100 is total disease control, 0 is no disease control.

## O=C1CNC(c2ccc(F)c(F)c2)=NN1CC(F)(F)F [Compound 98]
[1]
  Rice Blast (RB) protectant fungicide data, percent control: 85 percent control
[2]
  Cucumber Powdery Mildew (CPM) protectant fungicide data, percent control: 75 percent control

## CCCCN1N=C(C)NC(c2cccc(OC)c2)C1=O (centres unmarked) [Compound 80]
[1]
  Rice Blast (RB) protectant fungicide data, percent control: 0 percent control
[2]
  Cucumber Powdery Mildew (CPM) protectant fungicide data, percent control: 50 percent control

## O=C1CNC(c2c(Cl)cncc2Cl)=NN1CC(F)(F)F [Compound 159]
[1]
  Rice Blast (RB) protectant fungicide data, percent control: 85 percent control
[2]
  Cucumber Powdery Mildew (CPM) protectant fungicide data, percent control: 0 percent control

## C=C(C)C1NC(c2ccc(Cl)c(Cl)c2)=NN(CCCC)C1=O (centres unmarked) [Compound 203]
[1]
  Rice Blast (RB) protectant fungicide data, percent control: 85 percent control
[2]
  Cucumber Powdery Mildew (CPM) protectant fungicide data, percent control: 0 percent control

## C=CCOC(=O)N1CC(=O)N(CC(F)(F)F)N=C1c1cc(Cl)cc(Cl)c1 [Compound 10, 1-(2,2,2-trifluoroethyl)-3-(3,5-dichlorophenyl)-4-allyloxycarbonyl-4,5-dihydro-1,2,4-triazin-6-one]
[1]
  pest or weed control at 300 g/ha: 90%
[2]
  pest or weed control at 300 g/ha: 0%

## CCCOc1ccc(-c2ncc(=O)n(CC(F)(F)F)n2)cc1 [Compound 281]
[1]
  Rice Blast (RB) protectant fungicide data, percent control: 85 percent control
[2]
  Cucumber Powdery Mildew (CPM) protectant fungicide data, percent control: 95 percent control

## CCCCN1N=C(c2ccc(Cl)c(Cl)c2)N(Cc2ccccc2)CC1=O [Compound 182]
[1]
  Rice Blast (RB) protectant fungicide data, percent control: 85 percent control
[2]
  Cucumber Powdery Mildew (CPM) protectant fungicide data, percent control: 0 percent control

## CCCCCN1N=C(c2cc(Cl)c(C)c(Cl)c2)NCC1=O [Compound 49]
[1]
  Rice Blast (RB) protectant fungicide data, percent control: 95 percent control
[2]
  Cucumber Powdery Mildew (CPM) protectant fungicide data, percent control: 75 percent control

## CCCCN1N=C(c2cc3ccccc3s2)NCC1=O [Compound 162]
[1]
  Rice Blast (RB) protectant fungicide data, percent control: 95 percent control
[2]
  Cucumber Powdery Mildew (CPM) protectant fungicide data, percent control: 50 percent control

## C=C(Cl)CN1N=C(c2cc(Cl)cc(Cl)c2)NCC1=O [Compound 65]
[1]
  Rice Blast (RB) protectant fungicide data, percent control: 95 percent control
[2]
  Cucumber Powdery Mildew (CPM) protectant fungicide data, percent control: 50 percent control

## CCCCN1N=C(c2ccc(F)c(Br)c2)NCC1=O [Compound 207]
[1]
  Rice Blast (RB) protectant fungicide data, percent control: 100 percent control
[2]
  Cucumber Powdery Mildew (CPM) protectant fungicide data, percent control: 85 percent control

## O=c1cnc(-c2ccc(Cl)cc2)nn1-c1ccccn1 [Compound 261]
[1]
  Rice Blast (RB) protectant fungicide data, percent control: 50 percent control
[2]
  Cucumber Powdery Mildew (CPM) protectant fungicide data, percent control: 0 percent control

## CCCCCN1N=C2C=CC(c3ccc(Cl)cc3)=NN2CC1=O [Compound 24, 2-Pentyl-7-(4-chlorophenyl)-pyridazino[6,1-c][1,2,4]triazin-3(4H)one]
[1]
  pest or weed control at 300 g/ha: 0%
[2]
  pest or weed control at 300 g/ha: 50%

## CCCCN1N=C(c2cc(Cl)cc(Cl)c2)N(C(=O)SC)CC1=O [Compound 129]
[1]
  Rice Blast (RB) protectant fungicide data, percent control: 50 percent control
[2]
  Cucumber Powdery Mildew (CPM) protectant fungicide data, percent control: 75 percent control

## O=C1CNC(c2ccccn2)=NN1Cc1ccccc1 [Compound 185]
[1]
  Rice Blast (RB) protectant fungicide data, percent control: 80 percent control
[2]
  Cucumber Powdery Mildew (CPM) protectant fungicide data, percent control: 75 percent control

## O=C1CNC(c2ccc(Cl)c(Cl)c2)=NN1 [Compound 174]
[1]
  Rice Blast (RB) protectant fungicide data, percent control: 75 percent control
[2]
  Cucumber Powdery Mildew (CPM) protectant fungicide data, percent control: 0 percent control

## C#CCN1N=C(c2cccc(C(F)(F)F)c2)NCC1=O [Compound 88]
[1]
  Rice Blast (RB) protectant fungicide data, percent control: 100 percent control
[2]
  Cucumber Powdery Mildew (CPM) protectant fungicide data, percent control: 50 percent control

## CCOc1ccc(-c2ncc(=O)n(-c3ccc(Cl)cc3)n2)cc1 [Compound 274]
[1]
  Rice Blast (RB) protectant fungicide data, percent control: 85 percent control
[2]
  Cucumber Powdery Mildew (CPM) protectant fungicide data, percent control: 0 percent control

## O=C1CN(C(=O)Oc2ccccc2)C(c2cc(Cl)cc(Cl)c2)=NN1CC(F)(F)F [Compound 193]
[1]
  Rice Blast (RB) protectant fungicide data, percent control: 80 percent control
[2]
  Cucumber Powdery Mildew (CPM) protectant fungicide data, percent control: 0 percent control

## C=CC(=O)N1CC(=O)N(CC(F)(F)F)N=C1c1cc(Cl)cc(Cl)c1 [Compound 137]
[1]
  Rice Blast (RB) protectant fungicide data, percent control: 85 percent control
[2]
  Cucumber Powdery Mildew (CPM) protectant fungicide data, percent control: 0 percent control

## O=C1CN(CCCl)C(c2cc(Cl)cc(Cl)c2)=NN1CC(F)(F)F [Compound 126]
[1]
  Rice Blast (RB) protectant fungicide data, percent control: 50 percent control
[2]
  Cucumber Powdery Mildew (CPM) protectant fungicide data, percent control: 0 percent control

## CCCCN1N=C(c2cccc(OC)c2)NCC1=O [Compound 114]
[1]
  Rice Blast (RB) protectant fungicide data, percent control: 75 percent control
[2]
  Cucumber Powdery Mildew (CPM) protectant fungicide data, percent control: 0 percent control

## CSc1ccc(C2=NN(CC(F)(F)F)C(=O)CN2)cc1 [Compound 147]
[1]
  Rice Blast (RB) protectant fungicide data, percent control: 98 percent control
[2]
  Cucumber Powdery Mildew (CPM) protectant fungicide data, percent control: 0 percent control

## CCOc1ccc(C2=NN(c3ccc(Cl)cc3)C(=O)CN2)cc1 [Compound 161]
[1]
  Rice Blast (RB) protectant fungicide data, percent control: 80 percent control
[2]
  Cucumber Powdery Mildew (CPM) protectant fungicide data, percent control: 0 percent control

## CCOC(=O)N1C(c2cc(Cl)cc(Cl)c2)=NN(CC(F)(F)F)C(=O)C1OC (centres unmarked) [Compound 214]
[1]
  Rice Blast (RB) protectant fungicide data, percent control: 50 percent control
[2]
  Cucumber Powdery Mildew (CPM) protectant fungicide data, percent control: 85 percent control

## C=COC(=O)N1CC(=O)N(CCCC)N=C1c1cccc(Cl)c1Cl [Compound 136]
[1]
  Rice Blast (RB) protectant fungicide data, percent control: 100 percent control
[2]
  Cucumber Powdery Mildew (CPM) protectant fungicide data, percent control: 80 percent control

## CCCCN1C=C2c3ccccc3OC(=O)N2CC1=O [Compound 25, 3-n-Butyl-3H-9-oxa-3,10a-diaza-phenanthrene-2,10-dione]
[1]
  pest or weed control at 300 g/ha: 75%
[2]
  pest or weed control at 300 g/ha: 0%

## C#CCN1CC(=O)N(CC#C)N=C1c1ccc(F)c(Br)c1 [Compound 217]
[1]
  Rice Blast (RB) protectant fungicide data, percent control: 85 percent control
[2]
  Cucumber Powdery Mildew (CPM) protectant fungicide data, percent control: 0 percent control

## CCC#CCN1CC(=O)N(CC#CCC)N=C1c1ccc(Cl)c(Cl)c1 [Compound 209]
[1]
  Rice Blast (RB) protectant fungicide data, percent control: 75 percent control
[2]
  Cucumber Powdery Mildew (CPM) protectant fungicide data, percent control: 0 percent control

## CCC#CCN1CC(=O)N(CCCC)N=C1c1ccc(Cl)c(Cl)c1 [Compound 180]
[1]
  Rice Blast (RB) protectant fungicide data, percent control: 95 percent control
[2]
  Cucumber Powdery Mildew (CPM) protectant fungicide data, percent control: 90 percent control

## O=C1C(O)NC(c2ccccn2)=NN1CC(F)(F)F (centres unmarked) [Compound 53]
[1]
  Rice Blast (RB) protectant fungicide data, percent control: 75 percent control
[2]
  Cucumber Powdery Mildew (CPM) protectant fungicide data, percent control: 0 percent control

## C=CCOC(=O)N1CC(=O)N(CCCC)N=C1c1ccc(Cl)c(Cl)c1 [Compound 170]
[1]
  Rice Blast (RB) protectant fungicide data, percent control: 90 percent control
[2]
  Cucumber Powdery Mildew (CPM) protectant fungicide data, percent control: 75 percent control

## O=c1cnc(-c2ccccc2)n[nH]1 [Compound 243]
[1]
  Rice Blast (RB) protectant fungicide data, percent control: 75 percent control
[2]
  Cucumber Powdery Mildew (CPM) protectant fungicide data, percent control: 0 percent control

## CCCCN1N=C(c2ccc(Cl)c(Cl)c2)N(CC2CCC2)CC1=O [Compound 201]
[1]
  Rice Blast (RB) protectant fungicide data, percent control: 85 percent control
[2]
  Cucumber Powdery Mildew (CPM) protectant fungicide data, percent control: 0 percent control

## CS(=O)(=O)N1CC(=O)N(CC(F)(F)F)N=C1c1ccc(Cl)cc1 [Compound 42]
[1]
  Rice Blast (RB) protectant fungicide data, percent control: 99 percent control
[2]
  Cucumber Powdery Mildew (CPM) protectant fungicide data, percent control: 50 percent control

## O=C1CNC(c2cc(Cl)nc(Cl)c2)=NN1Cc1ccccc1 [Compound 190]
[1]
  Rice Blast (RB) protectant fungicide data, percent control: 80 percent control
[2]
  Cucumber Powdery Mildew (CPM) protectant fungicide data, percent control: 0 percent control

## N#CCCn1nc(-c2ccc(-c3ccc([N+](=O)[O-])cc3)cc2)ncc1=O [Compound 276]
[1]
  Rice Blast (RB) protectant fungicide data, percent control: 85 percent control
[2]
  Cucumber Powdery Mildew (CPM) protectant fungicide data, percent control: 0 percent control

## CCCCn1nc(-c2sc(C)nc2C(F)(F)F)ncc1=O [Compound 268]
[1]
  Rice Blast (RB) protectant fungicide data, percent control: 0 percent control
[2]
  Cucumber Powdery Mildew (CPM) protectant fungicide data, percent control: 75 percent control

## O=C1CNC(c2ccc(-c3csnn3)cc2)=NN1CC(F)(F)F [Compound 144]
[1]
  Rice Blast (RB) protectant fungicide data, percent control: 85 percent control
[2]
  Cucumber Powdery Mildew (CPM) protectant fungicide data, percent control: 0 percent control

## CCCCN1N=C(C)NC(c2ccccc2C)C1=O (centres unmarked) [Compound 76]
[1]
  Rice Blast (RB) protectant fungicide data, percent control: 0 percent control
[2]
  Cucumber Powdery Mildew (CPM) protectant fungicide data, percent control: 25 percent control
